The record followed here is publication PMC8843100, “Development of newly synthesised quinazolinone-based CDK2 inhibitors with potent efficacy against melanoma” (Journal of Enzyme Inhibition and Medicinal Chemistry, 2022).

Common to all, as to experiment: NCI-60 single dose screen, sulforhodamine B
Holding throughout (format): cell-based, human

Assay [1] relates to M14. Particulars: Melanoma M14; single dose 10^−5 M. How it is done:
(§1) In this research, all of the newly synthesised quinazolinones were subjected to in vitro anticancer screening by the National Cancer Institute (USA) against 60 different human cell lines including leukaemia, non-small cell lung cancer, colon cancer, CNS cancer, melanoma, ovarian cancer, renal cancer, prostate cancer, and breast cancer. The tested compounds were evaluated at a single dose (10^−5 M). […] Regarding the benzenesulfonamide counterparts, the introduction of an electron-withdrawing group on the benzenesulfonamide moiety increased the inhibitory activity on the glioblastoma cell line SNB-75 as depicted by the chloro derivative 5c (GI% = 63.09) which was higher than that of the unsubstituted derivative 5a (GI% = 40.06) and the methyl derivative 5b (GI% = 33.03).
(§2) 1. Cytotoxicity screening against a panel of 60 human tumor cell lines
(§3) All the compounds were selected for NCI-60 Human Tumor Cell Lines Screen by the Developmental Therapeutics Program (DTP) at the National Cancer Institute (NCI), Maryland, USA. The operation of this screen utilizes 60 different human tumor cell lines, representing leukemia, non-small-cell lung cancer, colon cancer, CNS cancer, melanoma, ovarian cancer, renal cancer, prostate cancer and breas t cancer.
(§4) The compounds were supplied as dry powder and a single concentration is tested in all 60 cell lines at a single dose of 10 µM solution in dimethyl sulfoxide (DMSO) using Sulforhodamine B assay. Briefly, cells are seeded in 96 well plates at an appropriate density and incubated for 1 day. After 1 day, some of the plates are processed to determine the density time zero. To the remaining plates, compounds are added at 10 µM concentration. Plates are incubated a further 2 days, then fixed and staine d with sulphorhodamine B. Growth inhibition is calculated relative to cells without drug treatment and the time zero control. The use of a time zero control allows the determination of cell kill as well as net growth inhibition. […]

Assay [2] has as its system KM12. Particulars: Colon cancer KM12; single dose 10^−5 M. On the procedure:
as §1, §2, §3, §4

Assay [3] concerns MALME-3M. Particulars: Melanoma MALME-3M; single dose 10^−5 M. How it is done: as §1, §2, §3, §4
For assay [4], the system named is SNB-75. To be noted: CNS cancer SNB-75; single dose 10^−5 M. How it is done: as §1, §2, §3, §4
For assay [5], the system named is SK-MEL-2. To be noted: Melanoma SK-MEL-2; single dose 10^−5 M. On the procedure: as §1, §2, §3, §4
In assay [6] the test system is OVCAR-5. To be noted: Ovarian cancer OVCAR-5; single dose 10^−5 M. On the procedure: as §1, §2, §3, §4
Assay [7] deals with SF-539. Particulars: CNS cancer SF-539; single dose 10^−5 M. How it is done:
as §1, §2, §3, §4

Assay [8] concerns CAKI-1. To be noted: Renal cancer CAKI-1; single dose 10^−5 M. How it is done:
as §1, §2, §3, §4

In assay [9] the test system is UO-31. To be noted: Renal cancer UO-31; single dose 10^−5 M. On the procedure:
as §1, §2, §3, §4

For assay [10], the system named is CCRF-CEM. To be noted: Leukaemia CCRF-CEM; single dose 10^−5 M. On the procedure:
as §1, §2, §3, §4

For assay [11], the system named is K-562. To be noted: Leukaemia K-562; single dose 10^−5 M. How it is done:
as §1, §2, §3, §4

Assay [12] deals with NCI-H522. To be noted: Non-small cell lung cancer NCI-H522; single dose 10^−5 M. How it is done:
as §1, §2, §3, §4

Assay [13] deals with RXF 393. To be noted: Renal cancer RXF 393; single dose 10^−5 M. On the procedure:
as §1, §2, §3, §4

The test system of assay [14] is 786-0. Particulars: Renal cancer 786-0; single dose 10^−5 M. On the procedure:
as §1, §2, §3, §4

In assay [15] the test system is DU-145. To be noted: Prostate cancer DU-145; single dose 10^−5 M. How it is done: as §1, §2, §3, §4
For assay [16], the system named is HCT-15. Particulars: Colon cancer HCT-15; single dose 10^−5 M. How it is done: as §1, §2, §3, §4
Assay [17] concerns OVCAR-4. To be noted: Ovarian cancer OVCAR-4; single dose 10^−5 M. How it is done: as §1, §2, §3, §4
Assay [18] relates to SF-295. Particulars: CNS cancer SF-295; single dose 10^−5 M. How it is done: as §1, §2, §3, §4
Assay [19] deals with SN12C. To be noted: Renal cancer SN12C; single dose 10^−5 M. How it is done: as §1, §2, §3, §4
In assay [20] the test system is MCF7. To be noted: Breast cancer MCF7; single dose 10^−5 M. On the procedure: as §1, §2, §3
(§5) The compounds were supplied as dry powder and a single concentration is tested in all 60 cell lines at a single dose of 10 µM solution in dimethyl sulfoxide (DMSO) using Sulforhodamine B assay. Briefly, cells are seeded in 96 well plates at an appropriate density and incubated for 1 day. After 1 day, some of the plates are processed to determine the density time zero. To the remaining plates, compounds are added at 10 µM concentration. Plates are incubated a further 2 days, then fixed and staine d with sulphorhodamine B. Growth inhibition is calculated relative to cells without drug treatment and the time zero control. The use of a time zero control allows the determination of cell kill as well as net growth inhibition.
(§6) 2. Detection of IC50 against MDA-MB-435, SNB-75 cell lines and normal cell line WI -38.
(§7) Antiproliferative activities of 5c in melanoma cell line MDA-MB-435, glioblastoma cell line SNB-75 and normal cell line WI -38 and that of 8a in melanoma cell line MDA-MB-435 and normal cell line WI-38 were measured spectrophotometrically using in vitro MTT based toxicology assay kit (catalog no. M -5655, M-8910) (Sigma Aldrich), according to the manufacturer’s protocol. The three examined cell lin es were obtained from American Type Culture Collection (ATCC). Briefly, cells were platted (cells density 1.2 – 1.8 × 10,000 cells/well) in a volume of 100 µl complete growth medium + 100 μl of the tested compound per well in a 96-well plate for 48 h before the MTT assay. The cultures were removed from incubator into laminar flow hood then each vial of MTT [M-5655] should be reconstituted with 3 ml of medium or balanced salt solution without phenol red and serum. Reconstituted MTT was added in an amount equal to […]

In assay [21] the test system is MDA-MB-468. To be noted: Breast cancer MDA-MB-468; single dose 10^−5 M. On the procedure:
as §1, §2, §3, §5, §6, §7

Assay [22] relates to IGROV1. Particulars: Ovarian cancer IGROV1; single dose 10^−5 M. How it is done: as §1, §2, §3, §5, §6, §7
Assay [23] has as its system HL-60(TB). Particulars: Leukaemia HL-60(TB); single dose 10^−5 M. On the procedure:
as §1, §2, §3, §5, §6, §7

Turning to `O=C(CNn1c(COc2ccccc2)nc2ccccc2c1=O)Nc1ccccc1` [Compound 4a, 2-((4-oxo-2-(phenoxymethyl)quinazolin-3(4H)-yl)amino)-N-phenylacetamide], the “GI% at 10^−5 M” value is “– (– means GI < 10%)” in [1]; “– (– means GI < 10%)” in assay [2]; “– (– means GI < 10%)” in assay [3]; 62.34% in assay [4]; “– (– means GI < 10%)” in assay [5]; “– (– means GI < 10%)” in assay [6]. Besides, the “GI% at 10^−5 M” value is listed as “– (– means GI < 10%)” in assay [7]; 12.78% in assay [8]; 21.57% in assay [9]; “– (– means GI < 10%)” in assay [10]; “– (– means GI < 10%)” in [11]; 13.74% in assay [12]. In addition, the “GI% at 10^−5 M” value in [13], in assay [14], in [15], in assay [16], in assay [17] and in assay [18] was “– (– means GI < 10%)” throughout. Also, the “GI% at 10^−5 M” value in assay [19] is 13.08%; in assay [20], 15.7%; in assay [21], “– (– means GI < 10%)”; in assay [22], 19.54%; in [23], “– (– means GI < 10%)”.

With `Cc1ccc(S(=O)(=O)Nn2c(COc3ccccc3)nc3ccccc3c2=O)cc1` [Compound 5b, 4-methyl-N-(4-oxo-2-(phenoxymethyl)quinazolin-3(4H)-yl)benzenesulfonamide], the “GI% at 10^−5 M” value is reported as “– (– means GI < 10%)” in [1]; “– (– means GI < 10%)” in [2]; “– (– means GI < 10%)” in assay [3]; 33.03% in assay [4]; “– (– means GI < 10%)” in [5]; “– (– means GI < 10%)” in assay [6]. For the same molecule, the “GI% at 10^−5 M” value is given as “– (– means GI < 10%)” in assay [7]; “– (– means GI < 10%)” in assay [8]; 10.74% in assay [9]; “– (– means GI < 10%)” in assay [10]; “– (– means GI < 10%)” in assay [11]; “– (– means GI < 10%)” in assay [12]. Also, the “GI% at 10^−5 M” value in assay [13] is 10.27%; in [14], “– (– means GI < 10%)”; in assay [15] it was 15.73%; in [16], “– (– means GI < 10%)”; in assay [17], “– (– means GI < 10%)”; in assay [18] it was “– (– means GI < 10%)”. Further, the “GI% at 10^−5 M” value in assay [19] was “– (– means GI < 10%)”; in assay [20], 11.54%; in assay [21], “– (– means GI < 10%)”; in assay [22], 21.58%; in assay [23] it was “– (– means GI < 10%)”.

Turning to `O=C(CN1CCN(c2ccccc2)CC1)Nn1c(COc2ccccc2)nc2ccccc2c1=O` [Compound 8b, N-(4-oxo-2-(phenoxymethyl)quinazolin-3(4H)-yl)-2–(4-phenylpiperazin-1-yl)acetamid], the “GI% at 10^−5 M” value in [1], in assay [2], in assay [3], in assay [4], in assay [5] and in assay [6] was “– (– means GI < 10%)” each time. For the same molecule, the “GI% at 10^−5 M” value in assay [7] is on record as “– (– means GI < 10%)”; in [8] it was “– (– means GI < 10%)”; in [9] it was 20.18%; in assay [10], “– (– means GI < 10%)”; in assay [11] it was “– (– means GI < 10%)”; in assay [12], 11.45%. Also, the “GI% at 10^−5 M” value in assay [13], in assay [14], in assay [15], in [16], in assay [17] and in [18] was “– (– means GI < 10%)” in each case. In addition, the “GI% at 10^−5 M” value in [19], in assay [20], in [21], in [22] and in assay [23] was “– (– means GI < 10%)” in each case.
